Experimental data taken from ChEMBL document CHEMBL5030535, “Conjugates Derived from Lapatinib Derivatives with Cancer Cell Stemness Inhibitors Effectively Reversed Drug Resistance in Triple-Negative Breast Cancer” (J Med Chem, 2021).
Active and inactive are the calls of the source. No cut-off for these calls is given here.

Legend:
MDA-MB-231 [1] = experiment: Inhibition of Wnt/beta-Catenin signaling in drug-tolerant human MDA-MB-231/lapatinib cells assessed as reduction in c-Myc mRNA level at 20 uM incubated for 24 hrs by qRT-PCR analysis
MDA-MB-231 [2] = experiment: Inhibition of cell invasion in human MDA-MB-231/lapatinib cells at 20 uM; assay type: functional
MDA-MB-231 [3] = experiment: Inhibition of cell stemness in drug-tolerant human MDA-MB-231/lapatinib cells assessed as inhibition of Jagged expression at 20 uM after 24 hrs by flow cytometry; assay type: functional, cell-based
MDA-MB-231 [4] = experiment: Inhibition of cell stemness in drug-tolerant human MDA-MB-231/lapatinib cells assessed as inhibition of Notch expression at 20 uM after 24 hrs by flow cytometry; assay type: functional, cell-based
[5] = molecular target: T1, Epidermal growth factor receptor (Homo sapiens, UniProt P00533); experiment: Inhibition of human EGFR in human drug-tolerant MDA-MB-231/lapatinib cells assessed as inhibition of phosphorylation Akt1/2/3 at Ser473 of measured after 24 hrs by Western blot analysis; details: dose 5-20 µM
MDA-MB-231 [6] = experiment: Cell cycle arrest in human MDA-MB-231 cells assessed as accumulation at G2-M phase at 20 uM incubated for 24 hrs by PI staining based flow cytometry; assay type: functional
MDA-MB-231 [7] = experiment: Inhibition of Wnt/beta-Catenin signaling in drug-tolerant human MDA-MB-231/lapatinib cells assessed as reduction in p-GSK3beta level at 20 uM incubated for 24 hrs by Western blot analysis
[8] = molecular target: T1, Epidermal growth factor receptor; experiment: Inhibition of human EGFR phosphorylation in human MDA-MB-231 cells measured after 24 hrs by Western blot analysis; assay type: cell-based; details: dose 5-20 µM
MDA-MB-231 [9] = experiment: Antiproliferative activity against human drug tolerant MDA-MB-231/lapatinib cells assessed as inhibition of cell growth in measured after 72 hrs by MTT assay; assay type: functional, cell-based; details: MDA-MB-231, 72 h
MDA-MB-231 [10] = experiment: Antiproliferative activity against drug-tolerant human MDA-MB-231/lapatinib cells assessed as CD44-positive cells measured after 24 hrs by MTT assay; assay type: functional, cell-based; details: MDA-MB-231, 24 h
MDA-MB-231 [11] = experiment: Antiproliferative activity against drug-tolerant human MDA-MB-231/lapatinib cells assessed as CD44+/CD24- cells measured at 20 uM after 24 hrs by MTT assay; assay type: functional
MDA-MB-231 [12] = experiment: Inhibition of colony formation in human drug-tolerant MDA-MB-231/lapatinib cells at 5 uM measured after 24 hrs; assay type: functional
MDA-MB-231 [13] = experiment: Potency index, ratio of lapatinib IC50 to test compound IC50 for induction of apoptosis in drug-tolerant human MDA-MB-231 cells/lapatinib cells assessed as apoptotic rate at 20 uM measured after 24 hrs by flow cytometry; assay type: functional
MDA-MB-231 [14] = experiment: Antiproliferative activity against human MDA-MB-231 cells assessed as inhibition of cell growth measured after 72 hrs by MTT assay; assay type: functional, cell-based; details: MDA-MB-231, 72 h
MDA-MB-231 [15] = experiment: Inhibition of Wnt/beta-Catenin signaling in drug-tolerant human MDA-MB-231/lapatinib cells assessed as reduction in beta-catenin level at 20 uM incubated for 24 hrs by Western blot analysis
[16] = molecular target: T1, Epidermal growth factor receptor; experiment: Inhibition of human EGFR in human MDA-MB-231 cells assessed as inhibition of phosphorylation Akt1/2/3 at Ser473 of measured after 24 hrs by Western blot analysis; assay type: cell-based; details: dose 5-20 µM
MCF7 = experiment: Antiproliferative activity against human MCF7 cells assessed as inhibition of cell growth measured after 72 hrs by MTT assay; assay type: functional, cell-based; details: MCF7, 72 h
MDA-MB-231 [17] = experiment: Inhibition of cell stemness in human drug-tolerant MDA-MB-231/lapatinib cells assessed as inhibition of CD44+/CD24- expression at 20 uM after 24 hrs by flow cytometry analysis; assay type: functional
[18] = molecular target: T1, Epidermal growth factor receptor; experiment: Inhibition of human EGFR in human MDA-MB-231 cells assessed as inhibition of phosphorylation ERK1/2 at T202/Y204 of measured after 24 hrs by Western blot analysis; assay type: cell-based; details: dose 5-20 µM
MDA-MB-231 [19] = experiment: Cell cycle arrest in human drug-tolerant MDA-MB-231/lapatinib cells assessed as increase in accumulation at S phase at 20 uM incubated for 24 hrs […]; assay type: functional, cell-based
MDA-MB-231 [20] = experiment: Induction of apoptosis in drug-tolerant human MDA-MB-231 cells/lapatinib cells assessed as apoptotic rate at 20 uM measured after 24 hrs by flow cytometry; assay type: functional
MDA-MB-231 [21] = experiment: Inhibition of cell stemness in human drug-tolerant MDA-MB-231/lapatinib cells assessed as inhibition of Kif4 expression at 20 uM after 24 hrs by qRT-PCR analysis; assay type: functional, cell-based
[22] = molecular target: T1, Epidermal growth factor receptor; experiment: Inhibition of exogenous EGFR (unknown origin)
MDA-MB-231 [23] = experiment: Inhibition of Wnt/beta-Catenin signaling in drug-tolerant human MDA-MB-231/lapatinib cells assessed as reduction in MMP7 mRNA level at 20 uM incubated for 24 hrs by qRT-PCR analysis; assay type: tissue-based
MDA-MB-231 [24] = experiment: Inhibition of cell migration in human drug-tolerant MDA-MB-231/lapatinib cells at 20 uM; assay type: functional
MDA-MB-231 [25] = experiment: Cell cycle arrest in human drug-tolerant MDA-MB-231/lapatinib cells assessed as accumulation at G2-M phase at 20 uM incubated for 24 hrs by PI staining based flow cytometry; assay type: functional
MDA-MB-231 [26] = experiment: Induction apoptosis in MDA-MB-231/ lapatinib cells assessed as apoptotic cells at 20 uM measured after 24 hrs by propidium iodide staining based flow cytometric analysis; assay type: functional, cell-based; details: Homo sapiens
MDA-MB-231 [27] = experiment: Inhibition of Wnt/beta-Catenin signaling in drug-tolerant human MDA-MB-231/lapatinib cells assessed as reduction in cyclin D1 mRNA level at 20 uM incubated for 24 hrs by qRT-PCR analysis
MDA-MB-231 [28] = experiment: Cell cycle arrest in human MDA-MB-231 cells assessed as increase in accumulation at S phase at 20 uM incubated for 24 hrs by PI staining based flow cytometry; assay type: functional
MDA-MB-231 [29] = experiment: Antitumor activity against drug-tolerant human MDA-MB-231/lapatinib cells injected in BALB/c mouse assessed as tumor development measured after 8 weeks; assay type: functional, cell-based
[30] = Octanol/water partition coefficient, log P of the compound by shake flask method based thermodynamic solubility assay; assay type: physicochemical
MDA-MB-231 [31] = experiment: Inhibition of cell stemness in human drug-tolerant MDA-MB-231/lapatinib cells assessed as inhibition of OCT4 expression at 20 uM after 24 hrs by qRT-PCR analysis; assay type: functional, cell-based
HUVEC = experiment: Antiproliferative activity against human HUVEC cells assessed as inhibition of cell growth in measured after 72 hrs by MTT assay; assay type: cell-based
[32] = molecular target: T1, Epidermal growth factor receptor; experiment: Inhibition of human EGFR in human drug-tolerant MDA-MB-231/lapatinib cells assessed as inhibition of phosphorylation ERK1/2 at T202/Y204 of measured after 24 hrs by Western blot analysis; details: dose 5-20 µM
MDA-MB-231 [33] = experiment: Inhibition of Wnt/beta-Catenin signaling in drug-tolerant human MDA-MB-231/lapatinib cells assessed as increase in nuclear expression of p-beta-catenin level at 20 uM incubated for 24 hrs by Western blot analysis
MDA-MB-231 [34] = experiment: Inhibition of Wnt/beta-Catenin signaling in drug-tolerant human MDA-MB-231/lapatinib cells assessed as reduction in S100A4 mRNA level at 20 uM incubated for 24 hrs by qRT-PCR analysis
[35] = Resistant factor, ratio of IC50 for antiproliferative activity against drug-tolerant human MDA-MB-231 cells to IC50 for human MDA-MB-231 cells; assay type: functional
[36] = molecular target: T1, Epidermal growth factor receptor; experiment: Inhibition of human EGFR phosphorylation in human drug-tolerant MDA-MB-231/lapatinib cells measured after 24 hrs by Western blot analysis; details: dose 5-20 µM
MDA-MB-231 [37] = experiment: Inhibition of cell stemness in human drug-tolerant MDA-MB-231/lapatinib cells assessed as inhibition of SOX-2 expression at 20 uM after 24 hrs by qRT-PCR analysis; assay type: functional, cell-based
[38] = molecular target: T2, Aldehyde dehydrogenase 1A1 (Homo sapiens, UniProt P00352); experiment: Inhibition of ALDH1A1 in human drug-tolerant MDA-MB-231/lapatinib cells assessed as after 24 hrs
T2 sequence (P00352 whole entry): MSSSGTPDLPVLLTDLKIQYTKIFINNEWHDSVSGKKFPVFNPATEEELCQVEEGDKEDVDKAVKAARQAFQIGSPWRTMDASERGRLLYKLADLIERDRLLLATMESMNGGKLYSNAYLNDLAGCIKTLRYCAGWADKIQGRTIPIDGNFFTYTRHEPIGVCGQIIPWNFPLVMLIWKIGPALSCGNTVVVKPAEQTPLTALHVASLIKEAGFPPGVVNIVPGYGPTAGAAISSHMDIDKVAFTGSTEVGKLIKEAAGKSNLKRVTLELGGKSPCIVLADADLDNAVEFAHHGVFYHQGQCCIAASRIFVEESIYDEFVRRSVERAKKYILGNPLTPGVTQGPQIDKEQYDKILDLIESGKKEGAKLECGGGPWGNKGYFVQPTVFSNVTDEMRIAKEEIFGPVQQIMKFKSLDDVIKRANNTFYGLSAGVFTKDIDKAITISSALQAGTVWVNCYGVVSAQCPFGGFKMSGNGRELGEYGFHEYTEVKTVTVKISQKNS

MDA-MB-231 [39] = experiment: Inhibition of cell stemness in drug-tolerant human MDA-MB-231/lapatinib cells assessed as inhibition of ALDH1A1 expression at 20 uM after 24 hrs by flow cytometry; assay type: functional
MDA-MB-231 [40] = experiment: Cell cycle arrest in human drug-tolerant MDA-MB-231/lapatinib cells assessed as accumulation at G0-G1phase at 20 uM incubated for 24 hrs by PI staining based flow cytometry; assay type: functional
MDA-MB-231 [41] = experiment: Cell cycle arrest in human MDA-MB-231 cells assessed as accumulation at G0-G1phase at 20 uM incubated for 24 hrs by PI staining based flow cytometry; assay type: functional

T1 sequence (P00533 whole entry): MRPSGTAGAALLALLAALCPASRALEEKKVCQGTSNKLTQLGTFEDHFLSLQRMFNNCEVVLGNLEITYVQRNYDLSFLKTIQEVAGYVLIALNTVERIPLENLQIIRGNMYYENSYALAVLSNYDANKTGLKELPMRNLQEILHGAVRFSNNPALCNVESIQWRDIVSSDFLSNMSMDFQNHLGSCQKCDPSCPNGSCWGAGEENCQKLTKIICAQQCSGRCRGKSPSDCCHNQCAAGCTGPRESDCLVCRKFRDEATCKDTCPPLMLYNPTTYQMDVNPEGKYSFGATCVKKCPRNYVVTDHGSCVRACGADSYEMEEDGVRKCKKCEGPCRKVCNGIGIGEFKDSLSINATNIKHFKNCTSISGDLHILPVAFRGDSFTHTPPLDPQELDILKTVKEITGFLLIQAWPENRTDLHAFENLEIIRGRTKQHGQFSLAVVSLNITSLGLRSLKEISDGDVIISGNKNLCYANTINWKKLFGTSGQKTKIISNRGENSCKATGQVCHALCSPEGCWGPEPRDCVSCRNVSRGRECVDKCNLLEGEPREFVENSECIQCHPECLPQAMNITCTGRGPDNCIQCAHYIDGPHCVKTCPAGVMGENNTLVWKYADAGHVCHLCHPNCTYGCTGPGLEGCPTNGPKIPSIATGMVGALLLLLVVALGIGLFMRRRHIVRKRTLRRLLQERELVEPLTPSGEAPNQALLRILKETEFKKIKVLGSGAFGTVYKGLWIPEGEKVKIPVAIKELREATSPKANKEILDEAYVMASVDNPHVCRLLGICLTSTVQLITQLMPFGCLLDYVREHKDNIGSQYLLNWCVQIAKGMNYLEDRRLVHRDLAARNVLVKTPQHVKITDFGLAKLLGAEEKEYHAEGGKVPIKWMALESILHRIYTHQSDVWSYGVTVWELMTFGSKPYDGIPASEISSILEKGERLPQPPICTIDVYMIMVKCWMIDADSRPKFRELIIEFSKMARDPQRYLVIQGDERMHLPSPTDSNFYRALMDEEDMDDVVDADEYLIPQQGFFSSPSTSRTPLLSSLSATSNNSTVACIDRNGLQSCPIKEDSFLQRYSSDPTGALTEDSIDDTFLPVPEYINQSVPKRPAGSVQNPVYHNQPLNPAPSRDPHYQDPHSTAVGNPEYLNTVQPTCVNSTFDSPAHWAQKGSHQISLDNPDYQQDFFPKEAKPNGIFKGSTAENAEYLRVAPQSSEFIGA

SMILES	inhibition (MDA-MB-231 [1])	inhibition at 20 µM (MDA-MB-231 [2]) [%]	inhibition (MDA-MB-231 [3])	inhibition (MDA-MB-231 [4])	inhibition [5]	inhibition (MDA-MB-231 [7])	inhibition [8]	IC50 (MDA-MB-231 [9]) [nM]	IC50 (MDA-MB-231 [10]) [nM]	inhibition at 20 µM (MDA-MB-231 [11]) [%]	inhibition at 5 µM (MDA-MB-231 [12]) [%]	IC50 (MDA-MB-231 [14]) [nM]	inhibition (MDA-MB-231 [15])	inhibition [16]	IC50 (MCF7) [µM]	inhibition at 20 µM (MDA-MB-231 [17]) [%]	inhibition [18]	Activity (MDA-MB-231 [20])	inhibition (MDA-MB-231 [21])	IC50 [22] [nM]	other results
CS(=O)(=O)CCN(Cc1ccc(-c2ccc3ncnc(Nc4ccc(OCc5cccc(F)c5)c(Cl)c4)c3c2)o1)C(=O)CCC(=O)OCCN1CCN(CCCN2c3ccccc3Sc3ccc(Cl)cc32)CC1	Active	56.3	Active	Active	Dose-Dependent Effect	Active	Dose-Dependent Effect	1030	560	72.9	10.9	1540	Active	Active	3.62	0.56	Active	72%	Active	10.5	Activity (MDA-MB-231 [6]): Active; Ratio IC50 (MDA-MB-231 [13]): 2.23; Activity (MDA-MB-231 [19]): Active; inhibition (MDA-MB-231 [23]): Active; inhibition at 20 µM (MDA-MB-231 [24]): 13.2%; Activity (MDA-MB-231 [25]): Active; Activity (MDA-MB-231 [26]): Active; inhibition (MDA-MB-231 [27]): Active; Activity (MDA-MB-231 [28]): Active; Activity (MDA-MB-231 [29]): Active; logP [30]: 2.49; inhibition (MDA-MB-231 [31]): Active; IC50 (HUVEC): 89.2 µM; inhibition [32]: Dose-Dependent Effect; inhibition (MDA-MB-231 [33]): Active; inhibition (MDA-MB-231 [34]): Active; Ratio IC50 [35]: 0.67; inhibition [36]: Dose-Dependent Effect; inhibition (MDA-MB-231 [37]): Active; IC50 [38]: 86.4 nM
CC(OC(=O)CCCC(=O)N(CCS(C)(=O)=O)Cc1ccc(-c2ccc3ncnc(Nc4ccc(OCc5cccc(F)c5)c(Cl)c4)c3c2)o1)c1cc2c(o1)C(=O)c1ccccc1C2=O (stereo unspecified)	Active	77.3	Active	Active	Dose-Dependent Effect	Active	Dose-Dependent Effect	1690	2030	52.2	10.9	2040	Active	Active	3.86	2.03	Active	Active	Active	7.36	inhibition at 20 µM (MDA-MB-231 [39]): 71.2%; Activity (MDA-MB-231 [40]): Active; inhibition (MDA-MB-231 [23]): Active; Activity (MDA-MB-231 [26]): Active; inhibition (MDA-MB-231 [27]): Active; logP [30]: 2.15; Activity (MDA-MB-231 [41]): Active; inhibition (MDA-MB-231 [31]): Active; IC50 (HUVEC): 63.3 µM; inhibition [32]: Dose-Dependent Effect; inhibition (MDA-MB-231 [33]): Active; inhibition (MDA-MB-231 [34]): Active; Ratio IC50 [35]: 0.82; inhibition [36]: Dose-Dependent Effect; inhibition (MDA-MB-231 [37]): Active; IC50 [38]: 135 nM
